A short description of data set [1]: Fluorescence quantum yield in acetonitrile. The format is physicochemical. The conditions noted are these: for quantum yield of fluorescence ϕf: in MeCN, excitation at 483 nm, emission 637 nm (II) or 550 nm (II-H), reference tetraphenylporphyrin. The source says: The inventors then set out to measure the value ϕf of the quantum yield of fluorescence of the following compound taken up in acetonitrile
To do this, the inventors measured the absorbance (relative intensity) as a function of the wavelength (in nm) in the presence of increasing doses of 1,8-[…] (DBU—0 to 2 equivalents).
Phenazinium II and its II-H conjugate base fluoresce in MeCN at neutral or basic pH. […] The reference used for the calculation of the fluorescence quantum yield is tetraphenylporphyrin in acetonitrile (ϕf=0.15).
Calculation of ϕ: It is determined by measuring the emission intensity of a solution of known concentration; the reference used to calculate the fluorescence quantum yield here is tetraphenylporphyrin in acetonitrile (ϕf=0.15).

Data set [2] deals with MCF-7 tumor cells. As to the kind of experiment: Internalization kinetics with CLARIOstar plate reader. The format is cell-based, human. The conditions noted are these: MCF-7, in less than 24 hours. As for the experimental part: Data are percent internalization (remaining fluorescence/total fluorescence) as a function of time in hours. Data are means of three experiments±standard deviation.
The internalization kinetics were carried out with a CLARIOstar reader in order to quantify the internalization of the compound in the MCF-7 tumor cells. The values, corresponding to the ratio of the residual fluorescence/the total fluorescence, are presented in the form of means of three experiments, ±the standard deviation.

Data set [3] in a line: Singlet oxygen (1O2) production quantum yield. The format is physicochemical. On the procedure:
The absorption spectra were measured with a Perkin-Elmer double beam UV-visible spectrophotometer (Lambda EZ 210). The fluorescence spectrum was measured with a Fluorolog FL3-222 spectrofluorimeter (Horiba Jobin Yvon, Longjumeau, France) equipped with a 450 W xenon arc lamp, a thermostated compartment (25° C.), a photomultiplier UV-visible R928 ([…] Japan) and an InGaAs infrared detector cooled with liquid nitrogen (DSS-16A020L Electro-Optical System Inc, Phoenixville, Pa., USA). The excitation beam is separated by an SPEX dual grating monochromator (1200 lines/mm blazed at 330 nm). The fluorescence was measured by the UV-Visible detector via the SPEX double grating emission monochromator (1200 lines/mm blazed at 500 nm). The production of singlet oxygen was measured by the infrared detector via the SPEX double grating emission monochromator (600 lines/mm blazed at 1 μm). All spectra were measured using 4-sided quartz cuvettes. The absorbance values at the excitation wavelength of the references and samples have been adjusted to approximately 0.2.
By this method, the inventors were able to measure the quantum yield ϕΔ, which is 0.11 for the compound

In data set [4] the test system is MCF7 cells. The experiment in a line: One-photon photodynamic therapy in vitro, MTT viability. The format is cell-based, human. The conditions noted are these: MCF7, 100 nM, 5 h incubation, one-photon irradiation (λirrad.=514 nm), MTT two days later. As for the experimental part:
FIG. […] Two days later, the cells were subjected to a colorimetric cell viability assay (MTT). The experiment was carried out 3 times.
The inventors tested the effect of the compounds according to the invention in photodynamic therapy. MCF7 cells were incubated with the compound of formula
[…] Two days later, the cells were subjected to a colorimetric cell viability assay (MTT).

Data set [5] relates to MCF-7 cells. The experiment in a line: Two-photon photodynamic therapy in vitro. The format is cell-based, human. The conditions noted are these: two-photon λirrad.=810 nm, irradiation 5 seconds, 100 nM. On the procedure: As a control, untreated MCF7 cells without irradiation (A1), after irradiation at 790 nm (B1) or 810 nm (C1) are presented. […] Data are means of three experiments±standard deviation.
Two-photon photodynamic therapy (λirrad.=810 nm) has shown very encouraging results, since nearly 50% of tumor cells are killed without optimization (irradiation for only 5 seconds at a very low concentration of 100 nM of compound according to the invention).

The test system of data set [6] is MCF-7 cells. The experiment in a line: Internalization by flow cytometry (red fluorescent cells). The format is cell-based, human. The settings on record: MCF-7, 0.5 nM. As for the experimental part: by live MCF-7 cancer cells. Cells were treated with 0.5 nM compound for 1, 3, 6 or 24 h and red fluorescence was measured by flow cytometry. […] The x-axis represents the incubation time in hours and the y-axis the percentage of red fluorescent cells.
(§1) To do this, MCF-7 cells or healthy donor fibroblasts have been treated or not with 0.5 nM of compound of formula
(§2) for 1, 3, 6 or 24 h, and cell fluorescence was assessed by flow cytometry by detecting the number of cells with red fluorescence.
Background: Flow cytometry measures light scatter and fluorescence of single cells or particles in a stream.

In data set [7] the test system is healthy donor fibroblasts. Described as above. The conditions noted are these: 0.5 nM. The format is cell-based. As for the experimental part:
by healthy living cells of the fibroblast type. Cells were treated with 0.5 nM compound for 1, 3, 6 or 24 h and red fluorescence was measured by flow cytometry. […] The x-axis represents the incubation time in hours and the y-axis the percentage of red fluorescent cells.
as §1, §2

As to `CCCCCCCCNc1ccc2nc3cc(NC(C)(C)C)c(=N)cc-3n(CCCCCCCC)c2c1` [II-H], the “quantum yield of fluorescence ϕf” value in data set [1] was 0.08.
Consider `CCCCCCCCNc1ccc2nc3cc(NC(C)(C)C)c(N)cc3[n+](CCCCCCCC)c2c1` [II], for which the “quantum yield of fluorescence ϕf” value in data set [1] stood at 0.76. The “brightness (B=ε×ϕ)” value in data set [1] (in acetonitrile) was “about 50000”. Further, the “percent internalization (compound penetrating the cell)” value in data set [2] is listed as 10%.
As to `CCCCCCCCNc1ccc2nc3cc(NC(C)(C)C)c(N)cc3[n+](CCCCCCCC)c2c1` [drawing 44], in data set [3], the “singlet oxygen quantum yield ϕΔ” value is reported as 0.11.
With `CCCCCCCCNc1ccc2nc3cc(NC(C)(C)C)c(N)cc3[n+](CCCCCCCC)c2c1` [drawing 45], the tumor cells killed is reported as 98% in data set [4] and roughly 50% in data set [5].
On to `CCCCCCCCNc1ccc2nc3cc(NC(C)(C)C)c(N)cc3[n+](CCCCCCCC)c2c1` [drawing 47], for which the “cells that have internalized the compound” value in data set [6] (6 h incubation) is 46%; in data set [6] (24 h incubation), 90%; in data set [7] (6 h incubation), 18%; in data set [7] (24 h incubation) it was 24%.

Values taken from patent publication US20220315539A1, “PHENAZINE DERIVATIVE AND USE THEREOF FOR THE TREATMENT OF CANCER” (CENTRE NATIONAL DE LA RECHERCHE SCIENTIFIQUE, priority 2019, published 2022).
